The source made the active and inactive calls.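 How the source made its calls: active means compounds lowering cell viability signal with fitted half-maximal concentration at most ten times their highest tested concentration; inconclusive means flat fit with 30 to 70% signal loss, or poor fit; inactive means the rest.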
System: HEK293T viability, CellTiter-Glo ATP luminescence, 48 h
Experiment: HEK293T cell viability reduction, dose response, cytotoxicity control for LMP1 NF-kB inhibitor project, CellTiter-Glo luminescence, cherry-picks (AID 504861)

Question: How did the AC50 turn out when CCN(CC)c1ccc(/C=N/Nc2nc3ccccc3[nH]2)c(O)c1 was run?
Answer: 4.51 µM

Question: COc1ccccc1[C@]1(C)ON(c2ccccc2C(F)(F)F)C1=O was tested. Which AC50 did it give?
Answer: 26.4 µM

Question: For Cc1cc(Sc2nnc(N)s2)c2ccccc2n1, which AC50 is on record?
Answer: 3.34 µM

Question: How did the AC50 turn out when O=C(N/N=C/c1cc2c3c(c1O)CCCN3CCC2)c1ccccc1O was run?
Answer: 4.17 µM

Question: Which AC50 does the source give for COc1ccc(-c2nc(-c3cccs3)no2)cc1 here?
Answer: > 26 µM (inactive)

Question: For CCCc1sc(N/N=C/c2ccccn2)nc1-c1ccc(Br)cc1, which AC50 is on record?
Answer: 21.4 µM

Question: CC(=O)NC(c1ccc(Cl)cc1)c1ccc2cccnc2c1O (stereo not given) was tested. Which AC50 did it give?
Answer: 1.16 µM

Question: Which AC50 does the source give for CC(=NNC(=S)Nc1ccccc1Cl)c1ccccn1 here?
Answer: 0.922 µM

Question: For COc1ccc2[nH]c(-c3ccc(C)cc3)cc(=O)c2c1, which AC50 is on record?
Answer: > 26 µM (inactive)

Question: CCN(CC)c1ccc(/C=N/Nc2nc(C)cc(=O)[nH]2)c(O)c1 was tested. Which AC50 did it give?
Answer: 1.41 µM

Question: CCCCC(=O)NC(c1cccc([N+](=O)[O-])c1)c1ccc2cccnc2c1O (stereo not given) was tested. Which AC50 did it give?
Answer: 3.93 µM

Question: COc1cnc(-c2ccccn2)nc1Sc1ccccc1Cl was tested. Which AC50 did it give?
Answer: 18.8 µM

Question: How did the AC50 turn out when Cc1ccc2[nH]c(C(=O)N/N=C/c3ccccc3O)c(C)c2c1 was run?
Answer: 3.52 µM

Question: How did the AC50 turn out when NC(=S)N/N=C/c1ncc(C(F)(F)F)cc1Cl was run?
Answer: 17.9 µM

Question: Which AC50 does the source give for Cc1oc2c(c1C(=O)c1ccc(Cl)cc1)C(=O)C(=O)c1ccccc1-2 here?
Answer: 4.37 µM

Question: With CCc1ccc(Nc2n[n+](-c3ccccc3)c(-c3c(Cl)cccc3Cl)s2)cc1 as the molecule, how does the AC50 read?
Answer: 11.2 µM

Question: CCCCC(=O)NC(c1ccc(N(CC)CC)cc1)c1ccc2cccnc2c1O (stereo not given) was tested. Which AC50 did it give?
Answer: 1.54 µM

Question: CCCC(=O)NC(c1ccc(C)cc1)c1ccc2cccnc2c1O (stereo not given) was tested. Which AC50 did it give?
Answer: 4.45 µM

Question: Which AC50 does the source give for CCNC(=S)NNC(=O)c1cc(-c2ccc(OCC)cc2)nc2ccccc12 here?
Answer: 23 µM

Question: How did the AC50 turn out when CC(=O)NC(c1cccc([N+](=O)[O-])c1)c1ccc2cccnc2c1O (stereo not given) was run?
Answer: 3.66 µM

Question: Which AC50 does the source give for CC(=O)OC1CCC2(C)C(CCC3C4CC=C(C(C)=O)C4(C)OC(=O)CC32)C1 (stereo not given) here?
Answer: 4.45 µM

Question: CC(=NNC(=S)N1CCN(c2ccccn2)CC1)c1nccs1 was tested. Which AC50 did it give?
Answer: 3.52 µM

Question: Brc1ccc(-c2nc(-c3ccccn3)no2)o1 was tested. Which AC50 did it give?
Answer: > 26 µM (inactive)

Question: How did the AC50 turn out when OC1(c2cccc(C(F)(F)F)c2)CCN(c2ncnc3c2[nH]c2ccc(F)cc23)CC1 was run?
Answer: 17.8 µM

Question: With C=CCNC(=S)N/N=C(\C)c1ccccn1 as the molecule, how does the AC50 read?
Answer: 2.06 µM

Question: Which AC50 does the source give for COc1cc2c(cc1OC)C(c1ccc(-c3ccccc3Cl)o1)=NCC2 here?
Answer: 21 µM

Question: With COc1cc([C@@H]2c3cc4c(cc3[C@@H](O[C@@H]3O[C@@H]5CO[C@@H](C)O[C@H]5[C@H](O)[C@H]3O)[C@H]3COC(=O)[C@H]23)OCO4)cc(OC)c1O as the molecule, how does the AC50 read?
Answer: 26.5 µM

Question: Which AC50 does the source give for C#CCN(C[C@@H]1[C@@H](OC(=O)NCc2ccccc2F)[C@@H](OC(=O)NCc2ccccc2F)Cn2c(=O)ccc(=O)n21)S(=O)(=O)c1ccc(C)cc1 here?
Answer: 7.27 µM

Question: How did the AC50 turn out when c1ccc(-c2cccc(-c3ccccn3)n2)nc1 was run?
Answer: 1.77 µM

Question: Which AC50 does the source give for CCN(CC)c1ccc(/C=N/NC(=O)c2cnccn2)c(O)c1 here?
Answer: 3.21 µM

Question: For CCC(=O)NC(c1cc(Cl)c2cccnc2c1O)C1CC1 (stereo not given), which AC50 is on record?
Answer: 9.86 µM

Question: With COc1cccc(/C=N/NC(=O)c2[nH]nc3c2CCc2ccccc2-3)c1O as the molecule, how does the AC50 read?
Answer: 3.21 µM

Question: How did the AC50 turn out when O=C(N/N=C/c1ccc(O)cc1O)c1ccc(CN2C(=O)c3cccc4cccc2c34)cc1 was run?
Answer: 9.41 µM

Question: Clc1ccc(SCc2cc(N3CCOCC3)nc(-c3ccccn3)n2)cc1 was tested. Which AC50 did it give?
Answer: 14.9 µM

Question: CSc1ccc2c(c1)C(N1CCN(C)CC1)Cc1ccccc1S2 (stereo not given) was tested. Which AC50 did it give?
Answer: 15.4 µM

Question: CCN1CCN(Cc2ccc(NC(=O)c3ccc(C)c(NC(=O)c4c[nH]c5cc(C(F)(F)F)ccc5c4=O)c3)cc2C(F)(F)F)CC1 was tested. Which AC50 did it give?
Answer: 4.09 µM

Question: How did the AC50 turn out when CN(C)c1ccc(-c2nc3ccccc3n2C)cc1 was run?
Answer: 14.1 µM

Question: Which AC50 does the source give for CCc1cc2c(N3CCN(c4ccccc4)CC3)ncnc2s1 here?
Answer: 26.4 µM

Question: With COc1ccc(O)c(/C=N/Nc2nc(Nc3ccccc3)nc(-n3nc(C)cc3C)n2)c1 as the molecule, how does the AC50 read?
Answer: 7.55 µM

Question: With COc1cccc(N=Nc2ccc(O)c3ncccc23)c1 as the molecule, how does the AC50 read?
Answer: 2.88 µM

Question: For c1ccc(CCNc2nc(-c3ccccn3)nc3ccccc23)cc1, which AC50 is on record?
Answer: 1.13 µM

Question: O=C(/C=C/c1ccco1)Oc1cc(Br)cc(/C=N/NC(=O)c2ccccc2O)c1 was tested. Which AC50 did it give?
Answer: 3.47 µM

Question: With Cc1ccc2[nH]c3c(N4CCN(Cc5ccccc5)CC4)ncnc3c2c1 as the molecule, how does the AC50 read?
Answer: 12.2 µM

Question: CC1(C)N=C(N)N=C(N)N1c1ccc(CCCCc2ccccc2)cc1 was tested. Which AC50 did it give?
Answer: 0.406 µM

Question: CC(C)CC(=NNC(=O)c1ccncc1)c1cc(Cl)ccc1O was tested. Which AC50 did it give?
Answer: 3.12 µM

Question: How did the AC50 turn out when Oc1ccc2ccccc2c1N=Nc1ccccn1 was run?
Answer: 3.42 µM

Question: With Cn1nnnc1N=N/C(=N/Nc1ccccc1)c1ccccc1 as the molecule, how does the AC50 read?
Answer: 1.23 µM

Question: With O=C(N/N=C/c1cccs1)c1n[nH]c2c1CCCC2 as the molecule, how does the AC50 read?
Answer: 27 µM

Question: COc1cccc(/C=N/Nc2nc3ccccc3[nH]2)c1O was tested. Which AC50 did it give?
Answer: 5.26 µM

Question: Which AC50 does the source give for CC(C)C(=O)NC(c1cccc([N+](=O)[O-])c1)c1ccc2cccnc2c1O (stereo not given) here?
Answer: 4.33 µM

Question: For C#CCN(C[C@@H]1[C@@H](OC(=O)NCC2CCCCC2)[C@@H](OC(=O)NCC2CCCCC2)Cn2c(=O)ccc(=O)n21)S(=O)(=O)c1ccc(C)cc1, which AC50 is on record?
Answer: 4.63 µM

Question: Which AC50 does the source give for CC(C)C(=O)NC(c1ccc(Cl)cc1Cl)c1ccc2cccnc2c1O (stereo not given) here?
Answer: 3 µM

Question: How did the AC50 turn out when CC(=NNC(=S)Nc1ccccc1)c1ccccn1 was run?
Answer: 1.56 µM

Question: With c1ccc(C2=NNC(=NC3CC3)SC2)cc1 as the molecule, how does the AC50 read?
Answer: 12.1 µM

Question: With COc1ccccc1-c1nc(-c2ccccn2)no1 as the molecule, how does the AC50 read?
Answer: 5.63 µM
